Measurements from US10035971B2, “Method for treating algae” (STAMICARBON B.V., priority 2014, dated 2018).

Columns and labels:
[1] = in water; cited from earlier work
wet algae = assay: Algal cell lysis with ionic liquid and oil extraction / transesterification; assay type: cell-based; details: for recovered oil (% of the total algal oil content): wet algae 5 g, water content 85%, cell lysis 80° C. 1 h, hexane added
Procedure: Cell lysis was performed at 100° C. for 1 h. Hexane was added to favor oil separation. After centrifugation, a three phase system was obtained: an upper hydrophobic layer, containing the oil; a lower phase (solid), due to the precipitated ionic liquid conjugate (ca. 60% of the starting material), and a middle phase, containing water/methanol+conjugate acid+the cell lysis hydrophilic products.
CO2 was added under pressure. Cell lysis was performed at 100° C. for 1 h. At the end of the experiment, hexane was added to favor oil separation. After centrifugation, a two phase system was obtained: an upper hydrophobic layer, containing the oil; a lower phase, containing water, the ionic liquid and the hydrophilic algae products.
The wet algae (5 gr, water content 85%) were added to tetramethylguanidinium hydrogen sulfate (15 gr). Cell lysis was performed at 80° C. for 1 h. At the end of the experiment, hexane was added to favor oil separation. The hydrophobic phase, after hexane evaporation, was analyzed by NMR and GC-MS.
The wet algae (5 g, water content 85%) and methanol (2.5 g) were added to tetramethylguanidinium hydrogensulfate. Cell lysis was performed at 80° C. for 1 h. At the end of the experiment, hexane (5 ml) was added to favor oil separation and the eventual precipitation of the conjugate acid. […] After hexane evaporation, the recovered products were analyzed by NMR and GC.
Cell lysis was performed at 80° C. for 1 h. At the end of the experiment, hexane (5 ml) was added to favor oil separation.
Cell lysis was performed at 80° C. for 1 h. At the end of the experiment, methanol (25 ml) and hexane (5 ml) was added to favor oil separation. […] After separation of the hydrophobic layer, the added inorganic salts and water were removed by centrifugation and distillation, and the recovered liquid was again used for algae extraction. After hexane evaporation, the recovered products were analyzed by NMR and GC.
The wet algae (5 g, water content 85%) were added to 1-ethyl-3-methylimidazolium ethyl sulfate (25 gr). Cell lysis was performed at 80° C. for 1 h. At the end of the experiment, hexane (5 ml) was added to favor oil separation. […] After separation of the hydrophobic layer, water was removed from the aqueous phase and the recovered liquid was again used for algae extraction. After hexane evaporation, the recovered products were analyzed by NMR and GC.
Cell lysis was performed at 80° C. for 1 h. At the end of the experiment, hexane (5 ml) was added to favor oil separation. […] After hexane evaporation, the recovered products were analyzed by NMR and GC.

CN(C)C(=N)N(C)C [Tetramethylguanidine (TMG), 1,1,3,3-tetramethylguanidine]
pKa water [1]: 15.2

C1CN2CCN1CC2 [Dabco, triethylenediamine]
pKa water [1]: 8.8

CC(=O)[O-].CCCCn1cc[n+](C)c1 [[BMIM] Acetate, 1-butyl-3-methylimidazolium acetate]
recovered oil (% of the total algal oil content) (wet algae): 40%

1-ethyl-3-methylimidazolium ethyl sulfate [[EMIM] Ethyl Sulfate]
recovered oil (% of the total algal oil content) (wet algae): 50-52%

CCCC[n+]1ccn(C)c1.[Cl-] [[BMIM]Cl, 1-methyl-3-butylimidazolium chloride]
Oil extraction (%) with respect the total algal oil content (wet algae; Example 9, procedure of Example 1, 100° C. (10 atm for TMG and DBU), IL/Algae/MeOH 5:1:1.5 (5:1 for [BMIM]Cl)): 40-60%
recovered oil (% of the total algal oil content) (wet algae): 40-60%

CN1CCCC1 [N-methylpyrrolidine]
pKa water [1]: 10.5
